Legend:
[1] = system: exposed dental pulp of maxillary first molar; experiment: Pulp exposure (class I cavity) in maxillary first molar, H&E histology of sections four weeks after treatment; format: in vivo, C57BL/6J mice; details: mice
Protocol: (§1) In order to test this hypothesis, a class I cavity extending into the dentin and almost to the pulp was prepared on the occlusal surface of the maxillary first molar after anesthesia in five to six week old C57BL/6J mice. The cavity was prepared using a 0.3-0.5 millimeter diameter carbide bur. An endodontic hand file with a tip diameter of 0.06-0.10 millimeter was used to create a mechanical break in the thin dentin overlying the dental pulp, thereby creating a cavity that included exposed dentin and exposed pulp.
(§2) For the control group of mice, after hemostasis, a one-step, dual-cure, self-etching bonding agent (SCOTCHBOND™ Universal Adhesive; 3M ESPE, St. Paul, Minnesota, USA) was applied to exposed dentin according to the manufacturer's instructions and cured for 20-40 seconds using a dental curing light operated at 420-480 nanometers and 1200-2000 milliwatts/centimeter^2. ProRoot™ MTA (Mineral Trioxide Aggregate) root canal repair material (Dentsply Sirona, Tulsa Dental Specialties, Johnson City, Tennessee, USA) was prepared according to manufacturer's instructions by mixing powder and liquid components in equal proportions to form a dough. The dough was packed over the exposed pulp according to manufacturer's instructions. The cavity was then sealed with FILTEK™ Supreme Ultra Universal Restorative (3M ESPE, St. Paul, Minnesota, USA), which was applied to the cured adhesive and the root canal repair material, then cured for 20-40 seconds using a dental curing light operated at 420-480 nanometers and 1200-2000 milliwatts/centimeter^2.
For the test group of mice, after hemostasis, a one-step, dual-cure, self-etching bonding agent (SCOTCHBOND™ Universal Adhesive; 3M ESPE, St. Paul, Minnesota, USA) was applied to exposed dentin according to the manufacturer's instructions and cured for 20-40 seconds using a dental curing light operated at 420-480 nanometers and 1200-2000 milliwatts/centimeter^2. Prior to being applied, the AHA solution was divided into two parts of equal volume to mix in the photoinitiators and the redox (self-cure) initiator components. […]

[2] = system: exposed dental pulp of maxillary first molar; experiment: Pulp exposure (class I cavity) in maxillary first molar, microCT of maxilla six weeks after treatment; format: in vivo, C57BL/6J mice; details: mice, six weeks after dental procedure; longitudinal section, cured restorative removed before imaging
Protocol: as §1
as §2, with “The cavity was then sealed with FILTEK™ Supreme Ultra Universal Restorative (3M ESPE, St. Paul, Minnesota, USA), which was applied to the cured adhesive and the root canal repair material, then cured for 20-40 seconds using a dental curing light operated at 420-480 nanometers and 1200-2000 milliwatts/centimeter^2.” left out

SMILES: C=CC(=O)Oc1ccccc1N=Nc1ccccc1O [AHA, 2-Acryloyloxy-2′-hydroxy-azobenzene]
- appearance of gingiva around the site of application (inflammation, dysplasia) [1]: healthy without any signs of inflammation or dysplasia
- formation of dentinal bridge at the site of pulp exposure (H&E stained sections) ([1]; 2.5 to 12.5 micrograms AHA per restoration applied to exposed pulp, light-cured under FILTEK restorative): closed by formation of a dentinal bridge generated by reparative dentin formation
- state of dental pulp by microscopy (vitality, inflammation, dysplastic changes) ([1]; H&E sections): vital pulp without any evidence of chronic or acute inflammation or dysplastic changes
- formation of a calcified dentinal bridge at the pulp exposure site (microCT) [2]: pulp exposure site closed by a calcified dentinal bridge

— patent US20250127689A1, “METHOD OF STIMULATING DENTIN FORMATION WITH HYDROXY-SUBSTITUTED AZOBENZENE MATERIALS” (The Regents of the University of Colorado, a body corporate, priority 2022, published 2025)
